From patent publication US10391150B2, “Treatments for migraine and related disorders” (The University of Chicago, priority 2011, dated 2019) come the findings set out here.

Like-named read-outs stand apart in the source and are kept apart here.

Test [1] concerns spreading depression (SD) in hippocampal slice cultures. The test is described as follows: Spreading depression (SD) threshold / susceptibility in hippocampal slice cultures. Format: cell-based, rat. An excerpt: FIGS. 2A-2E. […] (FIG. 2A) Experiments begin with determination of the current needed to maximize standard CA3 area field potential responses. Half-maximal intensity is then used to elicit CA3 area evoked field potentials from dentate gyrus bipolar electrical stimulation. This documents the normalcy of evoked synaptic responses between preparations. If a slice's field excitatory post synaptic potentials are not at least 3 mV, slices are discarded. Next, field potential trains (i) are noted to verify that preparations are healthy enough to follow 10 Hz stimulation (e.g., amplitudes of vertical deviations in fast potential records are similar) and the current needed to trigger SD (ii) is registered (Pusic and Kraig, 2010).
(FIG. 8a) Exemplary CA3 area evoked field potential. Experiments begin with establishment of the current intensity needed to evoke maximal field potential responses; stimuli of half-maximal intensity were then used to elicit subsequent field potentials. Only those cultures with CA3 pyramidal neuron post-synaptic responses of at least 3 mV were used for experiments. (FIG. 8b) CA3 response to dentate gyrus bipolar stimulation (10 pulses at 10 Hz, 500 μA) was used to elicit a spreading depression (SD), as shown in (FIG. 8c). (FIG. 8c) The spreading depression (SD) shown here was induced by the stimulation/response (arrow) shown in (FIG. 8b). […] Comparisons between groups made via Student's t-test.
The inventors induced SD trans-synaptically in rat HSC using electrical stimuli (100 μs pulses @ 10 Hz for 1 s) ranging from 1 to 10,000 nC in order to determine SD threshold in sham and experimental groups (Pusic et al., 2011). Results were based on n≥3-6/group. […] This insulin dose approximates the pharmacological levels seen in humans treated with nasal insulin.
Slice cultures were prepared and maintained as previously described (Mitchell et al., 2010a,). After 18 days in vitro (DIV), slice cultures were transferred to serum-free media that included additional calcium and magnesium. Cultures were screened at 21 DIV to ensure no pyramidal neuron death was present. Standard electrophysiological recordings were performed by placing a slice culture insert in a PDMI recording chamber with controlled temperature and pH (FIG. 1). The recording chamber was aerated with 5% CO2-balance air at 36° C. and media flowing at 1.2 mL/min or was held static around the slice culture insert. A recording electrode was placed at the CA3 pyramidal cell layer and a stimulating electrode was placed at the surface of the dentate gyrus. Recordings were initiated prior to placing the stimulating electrode on the culture to ensure no spreading depression was triggered as a result.
Studies began with determination of the current needed to maximize standard CA3 area field potential responses. This documented the normalcy of evoked synaptic responses between preparations. If a slice's field EPSPs were not at least 3-4 mV, it was discarded.
Next, trans-synaptically evoked SD was determined. Here, the inventors stimulated slices via the dentate gyrus with 100 μs pulses delivered at 10 Hz for 1 sec every 1-2 minutes at increasing μA current intensities until SD occurred.
Slice cultures are prepared, maintained, and induced to fire SD as previously described using trans-synaptic excitation of CA3, where SD is initiated (FIG. 4) (Kunkler et al., 2005; Pusic et al., 2011).

The test system of test [2] is SD in neocortex and hippocampus of anesthetized rat. The test is described as follows: SD threshold in vivo (0.5 M KCl injection) after nasal administration. To be noted: acutely after nasal treatment (IGF-1 150 μg; insulin 20 μg); control 1-8 nL. How it is done: Images show experimental setups for nasal administration and testing. (FIG. 7A) Nasal injection setup showing heat lamp and thermo-regulator that maintains temperature at 37° C. plus nose cone used to deliver isoflurane anesthesia. (FIG. 7B) Operator is shown administering nasal IGF-1 solution, which is performed in a fume hood to adequately vent isoflurane from nose cone. (FIG. 7C) Image illustrates standard electrophysiology setup. Anesthetized animal is placed into a standard electrophysiology holder and anesthesia maintained by a nose cone delivering 3% isoflurane in oxygen. Arterial oxygen saturation is monitored with a pulse-oximeter. Animals are warmed to 37.5° C. with a heating plate. SD is induced by progressively injecting larger volumes of 0.5 M KCl from an 8 μm diameter microelectrode. SD is registered with a second microelectrode used for DC recordings placed more caudally. After SD is evoked by a given injection pulse, the stimulating electrode is withdrawn and a volume re-injected under mineral oil. The diameter of the resultant KCl injection sphere is then measured off line using a compound microscope and the injection volume calculated. For example, in the above whole animal experiments it took 1-8 nL of 0.5 M KCl to evoke SD in control brain regions while after acute IGF-1 this amount rose to 67-109 nL. A day after IGF-1 treatment the volume needed to evoked SD was 34-48 nL. IFN-γ treatment required 338 nL of 0.5 M KCl a day after treatment and IL-11 required 67-200 nL.
Rats (FIGS. 6 and 7) are anesthetized with inhalational isoflurane and kept warm. While anesthetized, animals are placed in a supine position and 50 μL of sterile drug (i.e., IFN-γ, IGF-1, or IL-11) solution [or sterile saline vehicle (sham control)] is administered nasally by delivering 5 μL alternating between the left and right naris every 2 min over 20 minutes. Animals are given nasal drug treatments daily at the same time for 7 days before subsequent experiments. Doses for all 3 agents begin with the effective doses noted in our work using slice cultures (1×), then include others (0.1× and 10×). The inventors base this strategy on the fact that the effective culture dose for IGF-1 (40 ng/mL) closely approximates the dose used in vivo (143 μg/kg).
This approach was applied to measurement of SD threshold (FIG. 10) after treatment (FIG. 7) with nasally administered IGF-1 (150 μg), IL-11 (1 μg), IFN-γ (50,000 units), and insulin (20 μg). […] Resistance against SD was always greater in hippocampus compared to neocortex (n=4, controls; n=3, acutely after IGF-1; n=6, one day after IGF-1; n=6, one day after IL-11; n=6, one day after IFN-γ; and n=3, acutely after insulin).
Nasal administration followed by SD threshold evaluation in vivo. Vehicle or human recombinant IGF-1 (150 μg) is administered intranasally. SD threshold is established by injection of nanoliter volumes of 0.5 M KCl into neocortex or hippocampus (−2.0 mm from Bregma and 1.5 mm lateral from midline at either 750 μm or 2,800 μm into brain, respectively) using a thin-walled glass pipette and Picospritzer. Once a threshold is established, it is confirmed two more times, with an exemplary record from a vehicle-sham animal shown below. […] The diameter of the injected sphere is then measured using a compound microscope and used to calculate the injected volume, then moles of potassium. […]

The subject of test [3] is myelin basic protein (MBP). The test is described as follows: Myelin basic protein (MBP) Western blot in hippocampal slice cultures. Format: cell-based, rat. The following applies: after SD; anti-CD4 for 24 hours at 7 days in vitro; GW 4869. How it is done:
FIGS. 14A-14C. Reduced myelin basic protein (MBP) from SD depends on IFN-γ/T-cell activation and sphingomylinase. […] Thus, confirming involvement of T cells.
FIGS. 15A-15C. Physiological and transient elevation [i.e., phasic (see FIG. 1)] of IFN-γ triggers completely opposite effects. Transient (i.e., 500 U/mL×12 hours; all groups n≥5) exposure of hippocampal slice cultures was nutritive when assessed seven days later.
On the technique in general: Immunoblotting shows a protein as a band on a membrane.

For test [4], the system named is CA3 area evoked excitability. Format: cell-based, rat. The following applies: H2O2 exposure. How it is done: (§1) FIGS. 11a-11g IGF-1 decreased CA3 oxidative stress (OS) and its related hyperexcitability. […] Relative evoked excitability was determined as a sum of responses seen (e.g., responses of “2” and a “3” yielded an overall excitability score of five). […] (FIGS. 11d-e) Exemplary images of control (FIG. 11d) slice culture OS compared to increased slice OS induced by exposure to menadione (FIG. 11e). Calibration bar, 200 Dotted boxes indicate CA3 areas of interest used for relative OS quantifications (f and g).

The subject of test [5] is oxidative stress (OS) in hippocampal slice cultures. The experiment in a line: Oxidative stress (OS) by CellROX fluorescence in hippocampal slice cultures (CA3). To be noted: menadione exposure, without or with acute IGF-1. Format: cell-based, rat. How it is done:
FIGS. 4A-4F Oxidative stress (OS) from SD and its reduction by IGF-1. (FIG. 4A) Normal cytoarchitecture of a hippocampal slice culture showing pyramidal neuron areas of CA1, dentate gyrus (DG), and the imaging zone for the inventors' work here (dotted line), CA3. (FIG. 4B) OS was measured using CellROX, a fixable fluorescent marker from Invitrogen. […] (FIG. 4D) This reduction versus control SD was significant (p<0.02; n=4 & 5). (FIG. 4E) CellROX can be used to measure relative OS in specific brain cell types.
FIGS. 9a-9f IGF-1 decreased oxidative stress from spreading depression. (FIG. 9a) NeuN immunohistochemical labeling of a hippocampal slice culture, for cytoarchitectural reference and to show the CA3 area of interest (dotted line box) used for quantification of oxidative stress (OS) via CellROX™ fluorescence intensity. (FIGS. 9b-c) Representative CellROX™-labeled hippocampal slices exposed to SD (FIG. 9b) and to 3-day IGF-1 incubation followed by spreading depression (SD) (FIG. 9c). Dotted line boxes illustrate CA3 areas of interest used for relative OS quantifications. […] Again, seven day treatments consisted of exposing cultures to IGF-1 for 12 hours a day for seven days. Note: IGF-1 exposure was continued for the additional 24 hour CellROX™ incubation. Scale bars=400 μm (a) and 200 μm (b and c). Comparisons between groups were made via ANOVA plus Holm-Sidak post hoc testing.
as §1
Oxidative stress from SD preferentially rises in astrocytes and microglia, with the latter effect mitigated by IGF-1 (FIG. 13). The inventors have recently shown that spreading depression (SD), the most likely cause of migraine aura and perhaps migraine (Lauritzen and Kraig, 2005), occurs with increased oxidative stress (OS) and that OS, in turn, increases SD susceptibility (Grinberg et al., 2012). Reactive oxygen and nitrogen species that cause OS have both autocrine and paracrine signaling capacities that can affect SD susceptibility by altering excitability (Kishida and Klann, 2007). Accordingly, the inventors looked for the cellular origin of OS from SD. Here the inventors used hippocampal slice cultures (HSC) to probe for cell-specific changes in OS from SD. SD was induced trans-synaptically in rat HSCs using bipolar electrical stimuli at the dentate gyrus (Pusic et al., 2011). Six SDs were induced every 7-9 min over an hr, followed by 24 hr incubation in CellROX™, a fixable fluorogenic probe for measuring OS (Grinberg et al., 2012). HSCs were then fixed in 10% buffered formalin phosphate. Other fixatives (PLP, 4% paraformaldehyde) prevented detection of OS change. Tissue was then labeled for neurons (anti-NeuN), oligodendrocytes (anti-RIP), astrocytes (anti-GFAP), or for microglia (isolectin GS-IB4).

In the case of Insulin, the “relative SD threshold versus control (control 1.00±0.20)” value in test [1] (3-day exposure, insulin 400 μg/mL) was 22.60±9.60. Further, the “insulin dose needed for protective effect relative to IGF-1” value in test [1] (protection against SD in slice cultures) is given as 15 500 fold. For the same molecule, the “dose needed for protective effect against SD” value in test [1] (slice cultures) was found to be 70 µM. Further, in test [2], the “volume of 0.5 M KCl needed to evoke SD” value is 8 to 34 nL.
For `O=C(/C=C/c1ccc(/C=C/C(=O)Nc2ccc(C3=NCCN3)cc2)cc1)Nc1ccc(C2=NCCN2)cc1` [GW 4869, reference compound], the “decline in MBP / demyelination after SD” value in test [3] is “prevents the drop in MBP after SD”.
On to `OO` [hydrogen peroxide, reference compound], for which the “evoked excitability versus control” value in test [4] (without or with IGF-1 pretreatment for 3 days) is recorded as “increased slice excitability”; in test [4] (without or with acute IGF-1, 30 minutes after H2O2) it was “significantly increased evoked slice hyperexcitability”; in test [4] (without or with acute IGF-1, 30 minutes after H2O2, listed as H2O2), “increase in evoked excitability”.
Turning to `CC1=CC(=O)c2ccccc2C1=O` [menadione, reference compound], the “OS induced by menadione versus control” value in test [5] was “significant increase in slice OS”.

B1: sTNFR1: soluble TNFR1 used for removal of TNF-α signaling (protein, UniProt P19438 30-211, looked up)
extracellular domain: LVPHLGDREKRDSVCPQGKYIHPQNNSICCTKCHKGTYLYNDCPGPGQDTDCRECESGSFTASENHLRHCLSCSKCRKEMGQVEISSCTVDRDTVCGCRKNQYRHYWSENLFQCFNCSLCLNGTVHLSCQEKQNTVCTCHAGFFLRENECVSCSNCKKSLECTKLCLPQIENVKGTEDSGTT
modifications: extracellular domain
notes: soluble TNFR1 used for removal of TNF-α signaling
Regarding B1, the “SD-induced increased susceptibility to SD” value in test [1] (after previous SD, soluble TNFR1 200 ng/mL after first day of SD, anti-CD4 0.1 mg/mL at 7 days for 24 hours) was “abrogated”.
